This passage reports melting point results from patent US7342012B2, “Inhibitors of αLβ2 mediated cell adhesion” (Mitsubishi Tanabe Pharma Corporation, priority 1999, dated 2008).

By melting point is commonly meant the temperature, or range, at which the solid turns liquid. In the case of `CNC(=O)C1CN2C(=O)N(c3cc(Cl)cc(Cl)c3)C(=O)C2(Cc2ccc(OC(F)(F)F)cc2)C1` (centres unmarked) [Example 314], the melting point was found to be 212.6 °C. Then `CNC(=O)C1CN2C(=O)N(c3cc(Cl)cc(Cl)c3)C(=O)C2(Cc2ccc(OC(F)(F)F)cc2)C1` (centres unmarked) [Example 319], with 122.7 °C; and `O=C1N(c2cc(Cl)cc(Cl)c2)C(=O)C2(Cc3ccc(Br)cc3)C[C@@H](c3ccccc3)CN12` (stereo partly drawn) [Example 83, (7S)-5-(4-Bromobenzyl)-3-(3,5-dichlorophenyl)-7-phenyl-1,3-diazabicyclo[3.3.0]octane-2,4-dione], with 123.5 °C. The compound `O=C(c1ccc(Cl)c(Cl)c1)N1C(=O)N2CCCC2(Cc2ccc(Br)cc2)C1=O` (centres unmarked) [Example 109, 5-(4-Bromobenzyl)-3-(3,4-dichlorobenzoyl)-1,3-diazabicyclo[3.3.0]octane-2,4-dione] yielded a melting point of 158 °C.

Compound `O=C1N(c2cc(Cl)cc(Cl)c2)C(=O)C2(Cc3ccc(Br)cc3)CCCN12` (centres unmarked) [Example 1, 5-(4-Bromobenzyl)-3-(3,5-dichlorophenyl)-1,3-diazabicyclo[3.3.0]octane-2,4-dione] yielded a melting point of 69.4 °C. Under `O=C1N(c2cc(Cl)cc(Cl)c2)C(=O)[C@]2(Cc3ccc(Br)cc3)C[C@H](O)CN12` [Example 5, (5S,7S)-5-(4-Bromobenzyl)-3-(3,5-dichlorophenyl)-7-hydroxy-1,3-diazabicyclo[3.3.0]octane-2,4-dione] stands 88.3 °C; under `NC(=O)C(N)CC(=O)N[C@@H]1CN2C(=O)N(c3cc(Cl)nc(Cl)c3)C(=O)[C@@]2(Cc2ccc(OC(F)(F)F)cc2)C1` (stereo partly drawn) [Example 255, (5R, 7S)-5-[4-(Trifluoromethoxy)benzyl]-3-(2,6-dichloro-4-pyridyl)-7-[(3-carbamoyl-3-aminopropanoyl)amino]-1,3-diazabicyclo[3.3.0]octane-2,4-dione], 107.8 °C; under `N#Cc1ccc(CC23CCCN2C(=O)N(Cc2ccncc2)C3=O)cc1` (centres unmarked) [Example 108, 5-(4-Cyanobenzyl)-3-(4-pyridylmethyl)-1,3-diazabicyclo[3.3.0]octane-2,4-dione], 154 °C. As to `COC(=O)/C=C/c1cccc(-c2ccc(CC34CCCN3C(=O)N(c3cc(Cl)cc(Cl)c3)C4=O)cc2)c1` (centres unmarked) [Example 224, (E)-5-[4-[3-(2-Methoxycarbonyl)vinylphenyl]benzyl]-3-(3,5-dichlorophenyl)-1,3-diazabicyclo[3.3.0]octane-2,4-dione], the melting point amounted to 71.3 °C. The compound `CC1(C)COC(c2ccc(CC34CCCCN3C(=O)N(c3cc(Cl)cc(Cl)c3)C4=O)cc2)=N1` (centres unmarked) [Example 159, 6-[4-(4,4-Dimethyl-4,5-dihydro-2-oxazolyl)benzyl]-8-(3,5-dichlorophenyl)-1,8-diazabicyclo[4.3.0]nonane-7,9-dione] showed a melting point of 87.2 °C. The compound `N#Cc1ccc(CC23CCCN2C(=O)N(c2cc(Cl)cc(-n4cccc4C=O)c2)C3=O)cc1` (centres unmarked) [Example 52, 5-(4-Cyanobenzyl)-3-[3-chloro-5-(2-formyl-1-pyrrolyl)-phenyl]-1,3-diazabicyclo[3.3.0]octane-2,4-dione] came in with a melting point of 109.7 °C. In turn, `O=C1N(c2cc(Cl)cc(Cl)c2)C(=O)C2(Cc3ccc(S(=O)(=O)C(F)(F)F)cc3)CCCN12` (centres unmarked) [Example 311] had a melting point of 72.5 °C. For the compound `O=C(O)c1cc(C(=O)O)cc(N2C(=O)N3CCCC3(Cc3ccc(Br)cc3)C2=O)c1` (centres unmarked) [Example 236], the melting point is 259 °C (dec.). `O=C1N(c2cc(Cl)nc(Cl)c2)C(=O)C2(Cc3ccc(O)cc3)CCCN12` (centres unmarked) [Example 196, 5-(4-Hydroxybenzyl)-3-(2,6-dichloro-4-pyridyl)-1,3-diazabicyclo[3.3.0]octane-2,4-dione] yielded a melting point of 164.9 °C.

`O=C1N(c2cccc(F)c2)C(=O)C2(Cc3ccc(Br)cc3)CCCN12` (centres unmarked) [Example 238] yielded a melting point of 120.9 °C.

For `O=C1N(c2cc(Cl)nc(Cl)c2)C(=O)C2(Cc3ccc(Br)cc3)CCCN12` (centres unmarked) [Example 55, 3-(2,6-dichloro-4-pyridyl)-5-(4-bromobenzyl)-1,3-diazabicyclo[3.3.0]octane-2,4-dione], the melting point stood at 76.3 °C. Compound `COc1c(Cl)cc(N2C(=O)N3CCCC3(Cc3ccc(C#N)cc3)C2=O)cc1Cl` (centres unmarked) [Example 139, 5-(4-Cyanobenzyl)-3-(3,5-dichloro-4-methoxyphenyl)-1,3-diazabicyclo[3.3.0]octane-2,4-dione] came in with a melting point of 95.1 °C. For `CNC(=O)c1ccc(CC23CCCCN2C(=O)N(c2cc(Cl)cc(Cl)c2)C3=O)cc1` (centres unmarked) [Example 157], the melting point is 78.7 °C (dec.).

`NC(=O)C1CN2C(=O)N(c3cc(Cl)cc(Cl)c3)C(=O)C2(Cc2ccc(OC(F)(F)F)cc2)C1` (centres unmarked) [Example 317]: the melting point turned out to be 140.3 °C. `O=C1N(c2cc(Cl)cc(Cl)c2)C(=O)C2(Cc3ccc(-c4ccc([N+](=O)[O-])cc4)cc3)CCCN12` (centres unmarked) [Example 114, 5-[4-(4-Nitrophenyl)benzyl]-3-(3,5-dichlorophenyl)-1,3-diazabicyclo[3.3.0]octane-2,4-dione] yielded a melting point of 72 to 73 °C. In the case of `N#Cc1ccc(C(=O)C23CCCN2C(=O)N(c2cc(Cl)cc(Cl)c2)C3=O)cc1` (centres unmarked) [Example 112, 5-(4-Cyanobenzoyl)-3-(3,5-dichlorophenyl)-1,3-diazabicyclo[3.3.0]octane-2,4-dione], the melting point came to 72.1 °C. Take `Nc1ccc(-c2ccc(CC34CCCN3C(=O)N(c3cc(Cl)cc(Cl)c3)C4=O)cc2)cc1` (centres unmarked) [Example 115, 5-[4-(4-Aminophenyl)benzyl]-3-(3,5-dichlorophenyl)-1,3-diazabicyclo[3.3.0]octane-2,4-dione]: the melting point is 278 °C (dec.). Under `O=C1N(c2cc(Cl)nc(Cl)c2)C(=O)[C@]2(Cc3ccc(OC(F)(F)F)cc3)C[C@@H](O)CN12` [Example 59, (5S,7R)-5-[4-(Trifluoromethoxy)benzyl]-3-(2,6-dichloro-4-pyridyl)-7-hydroxy-1,3-diazabicyclo[3.3.0]octane-2,4-dione] stands 162.3 °C; under `COC(=O)C=C1CN2C(=O)N(c3cc(Cl)cc(Cl)c3)C(=O)C2(Cc2ccc(Br)cc2)C1` (centres unmarked) [Example 36, 5-(4-Bromobenzyl)-3-(3,5-dichlorophenyl)-7-methoxycarbonylmethylene-1,3-diazabicyclo[3.3.0]octane-2,4-dione], 74.9 °C. Then `N#Cc1ccc(CC23CCNN2C(=O)N(c2cc(Cl)nc(Cl)c2)C3=O)cc1` (centres unmarked) [Example 57, 5-(4-Cyanobenzyl)-3-(2,6-dichloro-4-pyridyl)-1,3,8-triazabicyclo [3.3.0]octane-2,4-dione], with 187 °C.

For the compound `CN(C)[C@@H]1CN2C(=O)N(c3cc(Cl)cc(Cl)c3)C(=O)[C@@]2(Cc2ccc(Br)cc2)C1` [Example 50, (5R,7S)-5-(4-Bromobenzyl)-3-(3,5-dichlorophenyl)-7-dimethylamino-1,3-diazabicyclo[3.3.0]octane-2,4-dione], the melting point worked out at 54 °C. `CC(=O)N[C@@H]1CN2C(=O)N(c3cc(Cl)cc(Cl)c3)C(=O)[C@]2(Cc2ccc(OC(F)(F)F)cc2)C1` [Example 291] showed a melting point of 61.2 °C. For the compound `CC(C)(C)OC(=O)c1ccc(C(=O)N[C@H]2CN3C(=O)N(c4cc(Cl)cc(Cl)c4)C(=O)[C@@]3(Cc3ccc(Br)cc3)C2)cc1` [Example 80, (5R, 7R)-5-(4-Bromobenzyl)-3-(3,5-dichlorophenyl)-7-(4-t-butoxycarbonylbenzoylamino)-1,3-diazabicyclo[3.3.0]octane-2,4-dione], the melting point stood at 112 °C. `[N-]=[N+]=N[C@@H]1CN2C(=O)N(c3cc(Cl)cc(Cl)c3)C(=O)[C@]2(Cc2ccc(Br)cc2)C1` [Example 3, (5S,7S)-5-(4-Bromobenzyl)-3-(3,5-dichlorophenyl)-7-azido-1,3-diazabicyclo[3.3.0]octane-2,4-dione] displayed a melting point of 58.9 °C. For `O=C1CCCN1c1cccc(-c2ccc(CC34CCCN3C(=O)N(c3cc(Cl)cc(Cl)c3)C4=O)cc2)c1` (centres unmarked) [Example 127, 5-[4-[3-(2-oxo-1-pyrrolidinyl)phenyl]benzyl]-3-(3,5-dichlorophenyl)-1,3-diazabicyclo[3.3.0]octane-2,4-dione], the melting point was 86.5 °C. `CC(=O)N1CCN2C(=O)N(c3cc(Cl)cc(Cl)c3)C(=O)C2(Cc2ccc(Br)cc2)C1` (centres unmarked) [Example 28, 4-Acetyl-6-(4-bromobenzyl)-8-(3,5-dichloro-phenyl)-1,4,8-triazabicyclo[4.3.0]nonane-7,9-dione]: the melting point was determined as 89.6 °C. Under `O=C1N(c2cc(Cl)cc(Cl)c2)C(=O)C2(Cc3ccc(-c4cccc(CO)c4)cc3)CCCN12` (centres unmarked) [Example 222, 5-[4-(3-Hydroxymethylphenyl)benzyl]-3-(3,5-dichlorophenyl)-1,3-diazabicyclo[3.3.0]octane-l2,4-dione] stands 77.1 °C; under `CSc1cccc(N2C(=O)N3CCCC3(Cc3ccc(Br)cc3)C2=O)c1` (centres unmarked) [Example 231], 84.8 °C; under `NC(=O)[C@H]1CN2C(=O)N(c3cc(Cl)cc(Cl)c3)C(=O)[C@]2(Cc2ccc(OC(F)(F)F)cc2)C1` [Example 312, (5R, 7R)-5-[4-(Trifluoromethoxy)benzyl]-3-(3,5-dichlorophenyl)-7-carbamoyl-1,3-diazabicyclo[3.3.0]octane-2,4-dione], 122.7 °C. As for `O=C1N(c2cc(C(F)(F)F)cc(C(F)(F)F)c2)C(=O)C2(Cc3ccc(Br)cc3)CCCN12` (centres unmarked), the melting point stood at 138 °C. For `CS(=O)(=O)N[C@@H]1CN2C(=O)N(c3cc(Cl)nc(Cl)c3)C(=O)[C@@]2(Cc2ccc(OC(F)(F)F)cc2)C1` [Example 254, (5R, 7S)-5-[4-(Trifluoromethoxy)benzyl]-3-(2,6-dichloro-4-pyridyl)-7-methanesulfonylamino-1,3-diazabicyclo[3.3.0]octane-2,4-dione], the melting point came out at 207.2 °C. On to `N#Cc1ccc(CC23CCCN2C(=O)N(CCc2cccc(Cl)c2)C3=O)cc1` (centres unmarked) [Example 107, 5-(4-Cyanobenzyl)-3-[2-(3-chlorophenyl)ethyl]-1,3-diazabicyclo[3.3.0]octane-2,4-dione], for which the melting point was 148 °C. Under `CN(C)C(=O)C1CN2C(=O)N(c3cc(Cl)cc(Cl)c3)C(=O)C2(Cc2ccc(OC(F)(F)F)cc2)C1` (centres unmarked) [Example 313] stands 106.1 °C.
